Assay results taken from paper PMC8744338, “Luteolin increases susceptibility to macrolides by inhibiting MsrA efflux pump in Trueperella pyogenes” (Veterinary Research, 2022).

Target: T1, MsrA efflux pump (His-MsrA) (Staphylococcus epidermidis, UniProt P23212)
T1 construct: macrolide ABC-F MsrA of staphylococcal type, not methionine sulfoxide reductase
Test: surface plasmon resonance (Biacore T200, His-MsrA captured on NTA chip)
Format: binding
Conditions: PBS-P running buffer; luteolin 12.5-400 μM

T1 sequence (P23212 whole entry): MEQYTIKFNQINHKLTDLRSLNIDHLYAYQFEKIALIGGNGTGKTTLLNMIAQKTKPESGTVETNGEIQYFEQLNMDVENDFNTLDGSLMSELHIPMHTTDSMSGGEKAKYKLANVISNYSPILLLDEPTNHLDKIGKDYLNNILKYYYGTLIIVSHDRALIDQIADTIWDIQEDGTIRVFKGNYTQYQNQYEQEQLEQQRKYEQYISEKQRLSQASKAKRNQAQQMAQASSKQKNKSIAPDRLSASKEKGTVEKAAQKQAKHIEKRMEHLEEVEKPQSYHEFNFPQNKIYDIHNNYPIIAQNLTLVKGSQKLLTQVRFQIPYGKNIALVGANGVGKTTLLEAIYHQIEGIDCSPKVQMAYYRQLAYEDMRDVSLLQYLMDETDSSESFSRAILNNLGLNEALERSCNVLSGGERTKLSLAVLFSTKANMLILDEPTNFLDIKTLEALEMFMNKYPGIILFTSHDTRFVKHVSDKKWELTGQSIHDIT

## O=c1cc(-c2ccc(O)c(O)c2)oc2cc(O)cc(O)c12 [luteolin]
  Kd: 64.6 µM
